Tests used:
human ERβ = molecular target: T1, human ERβ (Homo sapiens, UniProt Q92731); test: ERE-TK-luc reporter transactivation assay in CV-1 cells, full-length hERb; assay type: cell-based; conditions: for Fold Activation, ERE-TK-luc, hERb: Table 7, CV-1, drug conc 30 μM; for Activation of ERb: specificity for ERRs
T1 construct: Human ERα and ERβ were examined as full-length proteins using an estrogen receptor responsive reporter construct; expressed in transfected cells; host or cells: CV-1
Experimental: Human ERα and ERβ were examined as full-length proteins using an estrogen receptor responsive reporter construct.
Suitable reporter gene constructs are well known to skilled workers in the fields of biochemistry and molecular biology. […] Other vectors known in the art can be used in the methods of the present invention.
CV-1 cells for the activation assays were grown in Dulbecco's modified Eagle's medium supplemented with 10% resin charcoal-stripped fetal bovine serum, 50 U/ml penicillin G and 50 μg/ml streptomycin sulfate (DMEM-FBS) at 37° C. in 5% CO2. One day prior to transfection, cells were plated to 50-80% confluence using phenol red free DMEM-FBS.

[1] = molecular target: T2, HRHN-GAL (yeast GAL4 DNA binding domain without receptor sequences) (Saccharomyces cerevisiae, UniProt P04386); test: GAL4 reporter transactivation assay in CV-1 cells, control vector without receptor; assay type: cell-based, monkey; conditions: for Fold activation, HRHN-GAL: reporter 0.42:vector 0.00875, no PGC-1a
T2 construct: expressed in transfected cells; host or cells: CV-1

[2] = molecular target: T3, GAL-L-hERRb (human ERRβ ligand binding domain fused to GAL4 DNA binding domain) (Homo sapiens, UniProt O95718); test: GAL4 reporter transactivation assay in CV-1 cells, GAL-L-hERRb; assay type: cell-based; conditions: for Fold activation, GAL-L-hERRb + PGC-1a / Fold activation, GAL-L-hERRb: CV-1; for Fold activation, GAL-L-hERRb + PGC-1a: reporter 0.42:vector 0.00875:PGC-1a 0.035; for Fold activation, GAL-L-hERRb: reporter 0.42:vector 0.00875, no PGC-1a; for Activation of ERRβ: in the presence of PGC-1a
T3 construct: expressed in transfected cells; host or cells: CV-1
T3 sequence (O95718 208-432 limits assumed): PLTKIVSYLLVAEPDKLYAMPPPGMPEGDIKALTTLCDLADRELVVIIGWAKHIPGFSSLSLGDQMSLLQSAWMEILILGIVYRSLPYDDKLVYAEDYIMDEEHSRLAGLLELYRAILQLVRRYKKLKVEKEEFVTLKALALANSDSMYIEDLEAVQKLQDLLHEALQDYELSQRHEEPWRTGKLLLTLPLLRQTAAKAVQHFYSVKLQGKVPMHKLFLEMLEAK

[3] = molecular target: T4, GAL-mERRg (mouse ERRγ ligand binding domain fused to GAL4 DNA binding domain) (Mus musculus, UniProt P62509); test: GAL4 reporter transactivation assay in CV-1 cells, GAL-mERRg; assay type: cell-based; conditions: for Fold activation, GAL-mERRg + PGC-1a / Fold activation, GAL-mERRg: CV-1; for Fold activation, GAL-mERRg + PGC-1a: reporter 0.42:vector 0.00875:PGC-1a 0.035; for Fold activation, GAL-mERRg: reporter 0.42:vector 0.00875, no PGC-1a; for Activation of ERRγ: in the presence of PGC-1a
T4 construct: expressed in transfected cells; host or cells: CV-1
T4 sequence (P62509 233-457 limits assumed): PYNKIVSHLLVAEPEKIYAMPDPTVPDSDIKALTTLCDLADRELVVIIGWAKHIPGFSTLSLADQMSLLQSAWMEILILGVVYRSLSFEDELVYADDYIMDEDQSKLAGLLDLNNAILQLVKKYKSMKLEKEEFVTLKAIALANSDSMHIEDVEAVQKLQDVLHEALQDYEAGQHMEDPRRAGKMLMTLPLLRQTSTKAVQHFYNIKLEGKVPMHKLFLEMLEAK

[4] = reporter 0.42:vector 0.00875:PGC-1a 0.035, 1 μM
[5] = reporter 0.42:vector 0.00875:PGC-1a 0.035, 3 μM (first 3 μM column)
[6] = reporter 0.42:vector 0.00875:PGC-1a 0.035, 3 μM (second 3 μM column)
[7] = reporter 0.42:vector 0.00875:PGC-1a 0.035, 10 μM
[8] = reporter 0.42:vector 0.00875:PGC-1a 0.035, 30 μM

T1 sequence (Q92731 whole entry): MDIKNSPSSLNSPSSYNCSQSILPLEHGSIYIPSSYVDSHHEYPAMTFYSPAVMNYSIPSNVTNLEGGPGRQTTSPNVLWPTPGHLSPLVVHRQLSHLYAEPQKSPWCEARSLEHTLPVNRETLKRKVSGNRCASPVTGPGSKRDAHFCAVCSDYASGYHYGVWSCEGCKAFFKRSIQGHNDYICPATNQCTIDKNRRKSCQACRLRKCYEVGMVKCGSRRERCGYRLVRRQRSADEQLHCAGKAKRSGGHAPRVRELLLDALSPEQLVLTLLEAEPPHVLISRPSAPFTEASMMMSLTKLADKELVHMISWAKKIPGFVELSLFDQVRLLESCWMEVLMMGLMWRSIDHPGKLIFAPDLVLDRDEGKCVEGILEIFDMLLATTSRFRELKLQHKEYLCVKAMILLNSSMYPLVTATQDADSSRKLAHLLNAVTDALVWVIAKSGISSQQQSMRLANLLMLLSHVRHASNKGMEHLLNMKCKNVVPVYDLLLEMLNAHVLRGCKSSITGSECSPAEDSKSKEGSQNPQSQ
T2 sequence (P04386 1-147): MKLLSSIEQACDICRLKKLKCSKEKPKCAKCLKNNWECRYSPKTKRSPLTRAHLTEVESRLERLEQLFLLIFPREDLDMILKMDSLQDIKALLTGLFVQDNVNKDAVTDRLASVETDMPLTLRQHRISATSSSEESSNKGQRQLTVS

Row | Fold Activation, ERE-TK-luc, hERb (human ERβ) [fold] | Activation of ERb (human ERβ) | Fold activation, HRHN-GAL ([1]; 1 μM) [fold] | Fold activation, HRHN-GAL ([1]; 3 μM (first 3 μM column)) [fold] | Fold activation, HRHN-GAL ([1]; 3 μM (second 3 μM column)) [fold] | Fold activation, HRHN-GAL ([1]; 10 μM) [fold] | Fold activation, HRHN-GAL ([1]; 30 μM) [fold] | Fold activation, HRHN-GAL + PGC-1a [1, 4] [fold] | Fold activation, HRHN-GAL + PGC-1a [1, 5] [fold] | Fold activation, HRHN-GAL + PGC-1a [1, 6] [fold] | Fold activation, HRHN-GAL + PGC-1a [1, 7] [fold] | Fold activation, HRHN-GAL + PGC-1a [1, 8] [fold] | Fold activation, GAL-L-hERRb + PGC-1a ([2]; 1 μM) [fold] | Fold activation, GAL-L-hERRb + PGC-1a ([2]; 3 μM (first 3 μM column)) [fold] | Fold activation, GAL-L-hERRb + PGC-1a ([2]; 3 μM (second 3 μM column)) [fold] | Fold activation, GAL-L-hERRb + PGC-1a ([2]; 10 μM) [fold] | Fold activation, GAL-L-hERRb + PGC-1a ([2]; 30 μM) [fold] | Fold activation, GAL-L-hERRb ([2]; 1 μM) [fold] | Fold activation, GAL-L-hERRb ([2]; 3 μM (first 3 μM column)) [fold] | Fold activation, GAL-L-hERRb ([2]; 3 μM (second 3 μM column)) [fold] | SMILES | other results
1 | 1.93 | do not activate | 0.95 | 1.08 | 1.25 | 1.24 | 1.26 | 1.31 | 1.05 | 1.03 | 1.39 | 1.11 | 1.38 | 1.79 | 1.47 | 1.89 | 2.45 | 1.29 | 1.25 | 0.98 | Cc1cccc(C=NNC(=O)c2ccc(O)cc2)c1 [DY159, 4-Hydroxy-benzoic acid (3-methyl-benzylidene)-hydrazide] | melting point: 241.9 °C; Fold activation, GAL-L-hERRb ([2]; 10 μM): 1.33 fold; Fold activation, GAL-L-hERRb ([2]; 30 μM): 1.36 fold; Activation of ERRβ [2]: can activate; Fold activation, GAL-mERRg + PGC-1a ([3]; 1 μM): 1.16 fold; Fold activation, GAL-mERRg + PGC-1a ([3]; 3 μM (first 3 μM column)): 1.45 fold; Fold activation, GAL-mERRg + PGC-1a ([3]; 3 μM (second 3 μM column)): 1.80 fold; Fold activation, GAL-mERRg + PGC-1a ([3]; 10 μM): 2.70 fold; Fold activation, GAL-mERRg + PGC-1a ([3]; 30 μM): 2.56 fold; Fold activation, GAL-mERRg ([3]; 1 μM): 1.39 fold; Fold activation, GAL-mERRg ([3]; 3 μM (first 3 μM column)): 1.28 fold; Fold activation, GAL-mERRg ([3]; 3 μM (second 3 μM column)): 1.22 fold; Fold activation, GAL-mERRg ([3]; 10 μM): 1.36 fold; Fold activation, GAL-mERRg ([3]; 30 μM): 1.01 fold; Activation of ERRγ [3]: can activate
2 | 1.74 | do not activate | 1.07 | 1.02 | 1.12 | 1.26 | 1.25 | 1.17 | 1.13 | 1.97 | 1.68 | 1.93 | 0.78 | 1.06 | 1.65 | 1.79 | 2.61 | 1.05 | 0.87 | 0.96 | O=C(NN=Cc1ccccc1)c1ccc(O)cc1 [DY162, 4-Hydroxy-benzoic acid benzylidene-hydrazide] | Fold activation, HRHN-GAL ([1]; 0.3 μM): 1.14 fold; Fold activation, HRHN-GAL + PGC-1a ([1]; reporter 0.42:vector 0.00875:PGC-1a 0.035, 0.3 μM): 1.26 fold; Fold activation, GAL-L-hERRb + PGC-1a ([2]; 0.3 μM): 0.77 fold; Fold activation, GAL-L-hERRb ([2]; 0.3 μM): 1.09 fold; Fold activation, GAL-L-hERRb ([2]; 10 μM): 1.57 fold; Fold activation, GAL-L-hERRb ([2]; 30 μM): 1.48 fold; Activation of ERRβ [2]: can activate; Fold activation, GAL-mERRg + PGC-1a ([3]; 0.3 μM): 0.92 fold; Fold activation, GAL-mERRg + PGC-1a ([3]; 1 μM): 1.06 fold; Fold activation, GAL-mERRg + PGC-1a ([3]; 3 μM (first 3 μM column)): 1.53 fold; Fold activation, GAL-mERRg + PGC-1a ([3]; 3 μM (second 3 μM column)): 1.63 fold; Fold activation, GAL-mERRg + PGC-1a ([3]; 10 μM): 2.45 fold; Fold activation, GAL-mERRg + PGC-1a ([3]; 30 μM): 2.46 fold; Fold activation, GAL-mERRg ([3]; 0.3 μM): 1.04 fold; Fold activation, GAL-mERRg ([3]; 1 μM): 0.89 fold; Fold activation, GAL-mERRg ([3]; 3 μM (first 3 μM column)): 0.92 fold; Fold activation, GAL-mERRg ([3]; 3 μM (second 3 μM column)): 1.40 fold; Fold activation, GAL-mERRg ([3]; 10 μM): 1.88 fold; Fold activation, GAL-mERRg ([3]; 30 μM): 1.59 fold; Activation of ERRγ [3]: can activate

Reference: US9085550B2, “Ligands for estrogen related receptors and methods for synthesis of said ligands” (CITY OF HOPE, priority 2005, dated 2015)
